Reference: patent publication US12599625B2, “Treatment of ARDS and other conditions caused by acutely elevated cytokine levels and post ARDS chronic cytokine production using inhaled anesthetics” (priority 2021, dated 2026)

System: substance P
Experiment: Clinical observation: relief of symptoms caused by acute and chronic excessive substance P
Format: in vivo, human

[N-]=[N+]=O [nitrous oxide]
relief of symptoms of COVID-19 and asthma (about 20 minutes of nitrous oxide every about 4-6 hours): may be relieved
relief of symptoms of COPD and asthma (nitrous oxide every about 4-6 hours): ray be relived
